Laboratory results: US20210171564A1, “COMPOSITIONS AND METHODS FOR THE TREATMENT OF CANCER” (Cellix Bio Private Limited, priority 2018, published 2021)
“And” between values parts separate entries of the source, which are not always exact repeats. Equal values may be shown once. “Also recorded” adds a separate entry of the source.

Experiments:
[1] = test system: HCT116 human colon cancer xenograft; assay: Anti-tumor efficacy in HCT-116 xenograft model in Foxn1 nude mice (tumor growth inhibition); type: in vivo, Foxn1 athymic nude female mice; conditions: for % Tumor Growth Inhibition (% TGI): oral; for tumor growth inhibition: day not given
From the text: Evaluation of Anti-Tumor Efficacy of Test Compound (CLX-Syn-G155A-C03) in HCT-116 Xenograft Model in Fox N1 Nude Mice:
(§1) The purpose of this study was to evaluate the anti-tumor activity of test compound administered by oral gavage, for a period of 17 days in HCT116 human colon cancer xenograft bearing Foxn1 athymic nude mice. The anti-tumor activity of test compound was compared with capecitabine. Foxn1 athymic nude female mice (7-8 weeks) were implanted with human colon cancer cell line, HCT116 (5 million cells/site) subcutaneously in the dorsal right flank. The animals were randomized (N=10) into different treatment groups as vehicle control, test compound (300 mg/kg, QD, 150 mg/kg BID, 1000 mg/kg QD and 500 mg/kg BID or capecitabine (1000 mg/kg QD and 500 mg/kg BID) based on the tumor volume, when the subcutaneous tumor reached a volume in the range of 70-137 mm^3.
(§2) The animals in the control group were dosed with the formulation used for test compound, which consisted of 0.5% w/v HPMC+0.5% w/v Tween-80 in purified water (q.s) at the dose volume of […]. The Capecitabine formulation was prepared using 0.5% Hydroxypropyl methylcellulose (HPMC E 15) in 40 mM citrate buffer, pH 6.0 at the dose volume of 10 mL/kg. Treatment to animals was performed initially for ten days dosing followed by 2 off doses days and then continued for another 7 days. […] Tumor growth inhibition (TGI) was calculated based on the tumor volume on a given day as compared to that on day 1. On day 19, blood samples were collected from test compound 1000 mg/kg QD and Capecitabine 1000 mg/kg QD groups at 0 hr; prior to dosing (first dose administration in morning) and at 0.5, 1, 2, 4, 8 and 24 hours post dosing to evaluate the pharmacokinetic parameters of various metabolites (5′-DFCR, 5′-DFUR, 5-Fluorouracil and valproic acid).

[2] = Toxicity profile in the xenograft study (mortality, clinical signs, body weight); type: in vivo; conditions: for Diarrhea / Hunch back / Morality: animals affected/10
From the text: as §1, §2

SMILES	% Tumor Growth Inhibition (% TGI) ([1]; 500 mg/kg BID, day 4)	% Tumor Growth Inhibition (% TGI) ([1]; 500 mg/kg BID, day 6)	% Tumor Growth Inhibition (% TGI) ([1]; 500 mg/kg BID, day 8)	% Tumor Growth Inhibition (% TGI) ([1]; 500 mg/kg BID, day 11)	% Tumor Growth Inhibition (% TGI) ([1]; 500 mg/kg BID, day 13)	% Tumor Growth Inhibition (% TGI) ([1]; 500 mg/kg BID, day 15)	tumor growth inhibition ([1]; 1000 mg/kg QD (once daily))	% Tumor Growth Inhibition (% TGI) ([1]; 1000 mg/kg QD, day 4)	% Tumor Growth Inhibition (% TGI) ([1]; 1000 mg/kg QD, day 6)	% Tumor Growth Inhibition (% TGI) ([1]; 1000 mg/kg QD, day 8)	% Tumor Growth Inhibition (% TGI) ([1]; 1000 mg/kg QD, day 11)	% Tumor Growth Inhibition (% TGI) ([1]; 1000 mg/kg QD, day 13)	% Tumor Growth Inhibition (% TGI) ([1]; 1000 mg/kg QD, day 15)	also measured
CCCCCOC(=O)Nc1nc(=O)n([C@@H]2O[C@H](C)[C@@H](O)[C@H]2O)cc1F [Capecitabine, reference compound]	87.0%	82.9%	85.8%	89.3%	93.6%	94.1%	94.1%	76.8%	71.5%	71.7%	77.2%	86.9%	87.6%	tumor growth inhibition ([1]; 500 mg/kg BID): 87.6%; Mean % body weight reduction ([2]; 500 mg/kg BID): −16.8%; Diarrhea ([2]; 500 mg/kg BID): 1/10; Hunch back ([2]; 500 mg/kg BID): 3/10; Morality ([2]; 500 mg/kg BID): 2/10; Mean % body weight reduction ([2]; 1000 mg/kg QD): −24.5%; Diarrhea ([2]; 1000 mg/kg QD): 0/10; Hunch back ([2]; 1000 mg/kg QD): 3/10; Morality ([2]; 1000 mg/kg QD): no mortality and 0/10
CCCC(CCC)C(=O)Nc1nc(=O)n([C@@H]2O[C@H](C)[C@@H](OC(C)=O)[C@H]2OC(C)=O)cc1F [Test Compound, (2R,3R,4R,5R)-2-(5-fluoro-2-oxo-4-(2-propylpentanamido)pyrimidin-1(2H)-yl)-5-methyltetrahydrofuran-3,4-diyl diacetate]	76.3%	74.8%	81.3%	87.7%	95.4%	96.6%	> 90%	66.0%	70.5%	73.3%	78.4%	88.1%	90.9%	% Tumor Growth Inhibition (% TGI) ([1]; 150 mg/kg BID, day 4): 37.4%; % Tumor Growth Inhibition (% TGI) ([1]; 150 mg/kg BID, day 6): 40.2%; % Tumor Growth Inhibition (% TGI) ([1]; 150 mg/kg BID, day 8): 39.2%; % Tumor Growth Inhibition (% TGI) ([1]; 150 mg/kg BID, day 11): 47.6%; % Tumor Growth Inhibition (% TGI) ([1]; 150 mg/kg BID, day 13): 55.7%; % Tumor Growth Inhibition (% TGI) ([1]; 150 mg/kg BID, day 15): 54.7%; % Tumor Growth Inhibition (% TGI) ([1]; 300 mg/kg QD, day 4): 58.8%; % Tumor Growth Inhibition (% TGI) ([1]; 300 mg/kg QD, day 6): 51.0%; % Tumor Growth Inhibition (% TGI) ([1]; 300 mg/kg QD, day 8): 55.5%; % Tumor Growth Inhibition (% TGI) ([1]; 300 mg/kg QD, day 11): 60.7%; % Tumor Growth Inhibition (% TGI) ([1]; 300 mg/kg QD, day 13): 67.2%; % Tumor Growth Inhibition (% TGI) ([1]; 300 mg/kg QD, day 15): 70.4%; antitumor activity of once a day schedule versus twice a day schedule (150 mg/kg BID) ([1]; 300 mg/kg/day once daily): better antitumor activity; antitumor activity against HCT-116 human colon cancer xenografts ([1]; oral gavage, QD and BID dosage regimen): statistically significant, dose dependent tumor growth inhibition; also recorded: statistically significant dose dependent antitumor activity
